Laboratory results: patent publication US9969709B2, “Guanidinobenzoic acid ester compound” (Takeda Pharmaceutical Company Limited, priority 2013, dated 2018)
Counter-ions that a name gives are not always drawn.

How the values were obtained:
Wistar rats = assay: Rat uninephrectomy doxorubicin (DXR)-induced nephropathy model (renal function reduced model); type: in vivo; conditions: 10 mg/kg oral twice daily, week 3, vs control group
Procedure: 3. Test of Rat Uninephrectomy Doxorubicin (DXR)-Induced Nephropathy Model (Renal Function Reduced Model) Uninephrectomy was performed in the left kidney of 10-week old male Wistar rats, and one week later, DXR (5 mg/kg) was administered to the rats via the caudal vein to induce a nephropathy model. The experiment was carried out in ten rats per group. During the period of administering the compound, the rats were fed with diet only in daytime, while fasted in nighttime. A test compound (10 mg/kg) was suspended in a 0.5% methylcellulose (MC) solution from the day after the preparation of the model, and was forcibly orally administered twice (morning and night) daily. To each of a sham (normal) group and a control group, 0.5% MC was forcibly orally administered. At 1, 2, and 3 weeks after the start of administration of the test compound, 24-hour urine collection was each performed to measure the amount of the protein excretion in urine. Blood collection was performed after the end of the urine collection at week 3, and the concentration of creatinine in plasma was measured.

[1] = tested on: T1, mouse trypsin (m-trypsin); assay: Trypsin inhibitory activity, mouse trypsin purified from small intestine contents, BZiPAR fluorescent substrate; type: biochemical; conditions: 30 min at room temperature
T1 construct: mouse trypsin (m-trypsin)
Text: 1. Confirmation of Trypsin Inhibitory Activity in Humans and Mice
In the experiment, human recombinant trypsin (rh-trypsin; manufactured by Wako Pure Chemical Industries, Ltd.), cat. #206-17171) and mouse trypsin (m-trypsin; purified from the mouse small intestine contents by the present inventors) were used. The method for purifying m-trypsin from the contents of the mouse small intestine is shown below.
The small intestine contents and the gastrointestinal tract obtained from 10 mice were homogenized in phosphate buffer saline (PBS) using Polytron, and subjected to centrifugation several times at 15,000×g for 10 minutes. The supernatant was mixed at 4° C. for 16 hours with a Benzamidine Sepharose 4 Fast Flow Resin (GE Healthcare: #17-5123-10). After washing the resin with PBS, m-trypsin was eluted with a glycine buffer (pH 3.0) to carry out purification. It was confirmed by Western blot analysis that the obtained purified fraction was recognized as an Anti-mouse Trypsin Antibody (Santa Cruz Biotechnology, Inc.: sc-67388). The method for measuring the trypsin inhibiting activity is shown below.
(§1) The compound was dissolved in dimethyl sulfoxide (DMSO), and diluted to an arbitrary concentration (A). A was 100-fold diluted with a buffer (0.1 M Tris (pH 8.0), 0.15 M NaCl, 10 mM CaCl2, 0.05% Brij35) (B). The rh-trypsin was diluted with a buffer to 0.088 μg/mL, and for the m-trypsin, the purified fraction liquid was 50-fold diluted with the buffer (C). […] A BZiPAR solution (Rhodamine Reference Substrate) which is substrate for the trypsin enzyme was diluted with the buffer to […] (D). 5 μL of B, 5 μL of C, and 10 μL of D were added to a 384-well plate, and incubated at room temperature for 30 minutes. Fluorescent signals were detected at a maximum excitement (Ex)/fluorescent wavelength (Em)=497 nm/520 nm using a Tecan Safire Fluorometer. […] Based on the obtained inhibitory rates, the trypsin inhibitory activities (IC50 values, nM) were calculated from the non-linear regression.

ICR mice = assay: Test of increase in fecal protein concentration using mice; type: in vivo, mouse; conditions: Mus musculus, po, 9 h, 5 mg/kg oral, male ICR mice, feces collected 3 to 9 hours after feeding started, control group = 1; read-out: Fecal protein, Folds (vs. control)
Procedure: 2. Test of Increase in Fecal Protein Concentration Using Mice
For the experiment, 6-week old male ICR mice were used. The experiment was carried out in five mice per group. After fasting the mice for 15 hours, the control group was forcibly orally administered with a 0.5% methyl cellulose (MC) solution, and the test drug group was forcibly orally administered (5 mg/kg) with a solution or suspension obtained by dissolving or suspending the compound in the 0.5% MC solution. The fasting was stopped immediately thereafter, free feeding (CE-2) was started, and then the feces were collected from after 3 hours to after 9 hours, and weighed. All of the obtained feces were suspended in 6 mL of distilled water, and centrifuged at 1,940×g for 10 minutes. The protein concentration in the obtained supernatant was measured by a Bradford method, and the amount of the protein in 1 g of feces was calculated by dividing the protein concentration in the feces by the total weight of feces. Further, the efficacy was investigated from the ratio to the control group. For the compounds that were evaluated multiple times, the average values were calculated.
The results of the activities with an increase in Fecal Protein, assuming a value for the control group as 1, are shown in Table 2.

[2] = target: T2, human recombinant trypsin (rh-trypsin) (Homo sapiens, UniProt P07477); assay: Trypsin inhibitory activity, human recombinant trypsin, BZiPAR fluorescent substrate; type: biochemical; conditions: 30 min at room temperature, read-out: r-h Trypsin inhibitory activity (IC50)
T2 construct: purchased Wako Pure Chemical Industries, Ltd. 206-17171
Procedure: as §1, with “1. Confirmation of Trypsin Inhibitory Activity in Humans and Mice In the experiment, human recombinant trypsin (rh-trypsin; manufactured by Wako Pure Chemical Industries, Ltd.), cat. #206-17171) and mouse trypsin (m-trypsin; purified from the mouse small intestine contents by the present inventors) were used. The method for purifying m-trypsin from the contents of the mouse small intestine is shown below. The compound” for “The compound”

With `Cl.N=C(N)Nc1ccc(C(=O)Oc2ccc3c(c2)CCCC3CC(=O)N(CC(=O)O)Cc2cccc(C(=O)O)c2)cc1` (centres unmarked) [Example 2, 3-{[({6-[(4-carbamimidamnidobenzoyl)oxy]-1,2,3,4-tetrahydronaphthalen-1-yl}acetyl)(carboxymethyl)amino]methyl}benzoic acid monohydrochloride] the “inhibitory rate of the amount of protein excretion in urine” value (Wistar rats) was “about 42%”, the “inhibitory rate of the creatinine concentration in plasma” value (Wistar rats) was “about 42%” and the IC50 [1] was 0.51 nM. The response vs control in vivo at 5 mg/kg (ICR mice) was 255% and the IC50 [2] was 0.4 nM.

Work on `N=C(N)Nc1ccc(C(=O)Oc2ccc3c(C(=O)N(CC(=O)O)Cc4csc(C(=O)O)c4)cccc3c2)cc1` [Example 57] yielded an IC50 [1] of 0.38 nM, a response vs control in vivo at 5 mg/kg (ICR mice) of 225% and an IC50 [2] of 0.19 nM.

`N=C(N)Nc1ccc(C(=O)Oc2ccc3cc(C(=O)N(CC(=O)O)Cc4csc(C(=O)O)c4)ccc3c2)cc1` [Example 1, 4-{[{6-[(4-carbamimidamidobenzoyl)oxy]-2-naphthoyl}(carboxymethyl)amino]methyl}thiophene-2-carboxylic acid monohydrochloride] gave an IC50 [1] of 0.41 nM, a response vs control in vivo at 5 mg/kg (ICR mice) of 200% and an IC50 [2] of 0.31 nM.

`N=C(N)Nc1ccc(C(=O)Oc2ccc3c(C(=O)N[C@@H](Cc4ccc(C(=O)O)cc4)C(=O)O)cccc3c2)cc1` [Example 3, N-{6-[(4-carbamimidamidobenzoyl)oxy]-1-naphthoyl}-4-carboxy-L-phenylalanine monohydrochloride] was tested, and the IC50 [1] was 0.22 nM, the response vs control in vivo at 5 mg/kg (ICR mice) was 209% and the IC50 [2] was 0.21 nM.

Work on `N=C(N)Nc1ccc(C(=O)Oc2ccc3c(c2)CCC3CC(=O)N(CC(=O)O)Cc2cccc(C(=O)O)c2)cc1` (centres unmarked) [Example 11] yielded an IC50 [1] of 0.68 nM, a response vs control in vivo at 5 mg/kg (ICR mice) of 263% and an IC50 [2] of 0.31 nM.

Compound `N=C(N)Nc1ccc(C(=O)Oc2ccc3c(c2)CCC(C(=O)N(CCC(=O)O)Cc2csc(C(=O)O)c2)C3)cc1` (centres unmarked) [Example 45] has an IC50 [1] of 0.54 nM, a response vs control in vivo at 5 mg/kg (ICR mice) of 138% and an IC50 [2] of 0.36 nM.

For `N=C(N)Nc1ccc(C(=O)Oc2ccc3c(C(=O)N(CC(=O)O)Cc4csc(C(=O)O)c4)csc3c2)cc1` [Example 13], the IC50 [1] was 0.36 nM, the response vs control in vivo at 5 mg/kg (ICR mice) was 273% and the IC50 [2] was 0.25 nM.

`N=C(N)Nc1ccc(C(=O)Oc2ccc3c(C(=O)N[C@@H](Cc4ccc(C(=O)O)cc4)C(=O)O)csc3c2)cc1` [Example 47] was tested, and the IC50 [1] was 0.29 nM, the response vs control in vivo at 5 mg/kg (ICR mice) was 191% and the IC50 [2] was 0.26 nM.

For `N=C(N)Nc1ccc(C(=O)Oc2ccc3c(c2)CCC(C(=O)N(CC(=O)O)Cc2ccc4sc(C(=O)O)cc4c2)C3)cc1` (centres unmarked) [Example 24], the IC50 [1] was 0.24 nM, the response vs control in vivo at 5 mg/kg (ICR mice) was 151% and the IC50 [2] was 0.23 nM.

Compound `N=C(N)Nc1ccc(C(=O)Oc2ccc3c(c2)CCC(C(=O)N(CC(=O)O)[C@@H](Cc2ccccc2)C(=O)O)C3)cc1` (some centres unmarked) [Example 31] has an IC50 [1] of 0.22 nM, a response vs control in vivo at 5 mg/kg (ICR mice) of 151% and an IC50 [2] of 0.23 nM.

Compound `N=C(N)Nc1ccc(C(=O)Oc2ccc3c(c2)CCC3CC(=O)N(CC(=O)O)Cc2ccc3sc(C(=O)O)cc3c2)cc1` (centres unmarked) [Example 51] has an IC50 [1] of 0.38 nM, a response vs control in vivo at 5 mg/kg (ICR mice) of 166% and an IC50 [2] of 0.34 nM.

With `N=C(N)Nc1ccc(C(=O)Oc2ccc3c(c2)CCC3CC(=O)N(CC(=O)O)Cc2csc(C(=O)O)c2)cc1` (centres unmarked) [Example 49] the IC50 [1] was 0.45 nM, the response vs control in vivo at 5 mg/kg (ICR mice) was 207% and the IC50 [2] was 0.37 nM.

With `N=C(N)Nc1ccc(C(=O)Oc2ccc3c(c2)CCCC3CC(=O)N(CC(=O)O)Cc2csc(C(=O)O)c2)cc1` (centres unmarked) [Example 27] the IC50 [1] was 0.35 nM, the response vs control in vivo at 5 mg/kg (ICR mice) was 198% and the IC50 [2] was 0.32 nM.

For `C[C@H](C(=O)O)N(Cc1csc(C(=O)O)c1)C(=O)CC1CCCc2cc(OC(=O)c3ccc(NC(=N)N)cc3)ccc21` (single isomer, unassigned) [Example 7, 4-({({(1R)-6-[(4-carbamimidamidobenzoyl)oxy]-1,2,3,4-tetrahydronaphthalen-1-yl}acetyl) [(1R)-1-carboxyethyl]amino}methyl)thiophene-2-carboxylic acid or an epimer at position 1 of the 1,2,3,4-tetrahydronaphthalene], the IC50 [1] was 0.26 nM, the response vs control in vivo at 5 mg/kg (ICR mice) was 183% and the IC50 [2] was 0.3 nM.
